Experimental data published in PMC5762315, “Inhibition of polo-like kinase 4 (PLK4): a new therapeutic option for rhabdoid tumors and pediatric medulloblastoma” (Oncotarget, 2017).
Several values for one entry are separate records, joined by “and”; a condition that tells them apart may be missing. Equal values may be shown once.

How the values were obtained:
Assay in all cases: biochemical
Assay type in all cases: biochemical
various kinases [1] = target: various kinases (Homo sapiens, UniProt Q9Y463); conditions: DYRK1B
various kinases [2] = target: various kinases (Homo sapiens, UniProt O15075); conditions: DCAMKL1 (DCLK1)
various kinases [3] = target: various kinases (Homo sapiens, UniProt P52333); conditions: JAK3
various kinases [4] = target: various kinases (Homo sapiens, UniProt Q15418); conditions: kinase RPS6KA1 (RSK1); ZLYTE
various kinases [5] = target: various kinases (Homo sapiens, UniProt P00519, E255K); conditions: ABL1 E255K
various kinases [6] = target: various kinases (Homo sapiens, UniProt Q8N4C8); conditions: MINK1
various kinases [7] = target: various kinases (Homo sapiens, UniProt P36888); conditions: FLT3
various kinases [8] = target: various kinases (Homo sapiens, UniProt Q9UQM7); conditions: CAMK2A (CaMKII alpha)
various kinases [9] = target: various kinases (Homo sapiens, UniProt P53778); conditions: MAPK12 (p38 gamma)
various kinases [10] = target: various kinases (Homo sapiens, UniProt P00533, T790M); conditions: EGFR (ErbB1) T790M
various kinases [11] = target: various kinases (Homo sapiens, UniProt P07333); conditions: CSF1R (FMS)
various kinases [12] = target: various kinases (Homo sapiens, UniProt P51957); conditions: NEK4
various kinases [13] = target: various kinases (Homo sapiens, UniProt Q9H3Y6); conditions: kinase SRMS (Srm); ZLYTE
various kinases [14] = target: various kinases (Homo sapiens, UniProt O75582); conditions: kinase RPS6KA5 (MSK1); ZLYTE
various kinases [15] = target: various kinases (Homo sapiens, UniProt Q00535)
various kinases [16] = target: various kinases (Homo sapiens, UniProt O60674, V617F); conditions: JAK2 JH1 JH2 V617F
various kinases [17] = target: various kinases (Homo sapiens, UniProt Q13464); conditions: kinase ROCK1; ZLYTE
various kinases [18] = target: various kinases (Homo sapiens, UniProt P11362); conditions: FGFR1
various kinases [19] = target: various kinases (Homo sapiens, UniProt O14920); conditions: IKBKB (IKK beta)
various kinases [20] = target: various kinases (Homo sapiens, UniProt P43405); conditions: kinase SYK; ZLYTE
various kinases [21] = target: various kinases (Homo sapiens, UniProt Q13177); conditions: PAK2 (PAK65)
various kinases [22] = target: various kinases (Homo sapiens, UniProt O00418); conditions: EEF2K
various kinases [23] = target: various kinases (Homo sapiens, UniProt P21802, N549H); conditions: FGFR2 N549H
various kinases [24] = target: T1, various kinases (Homo sapiens, UniProt Q96BR1); conditions: kinase SGKL (SGK3); ZLYTE
T1 sequence (Q96BR1 1-496): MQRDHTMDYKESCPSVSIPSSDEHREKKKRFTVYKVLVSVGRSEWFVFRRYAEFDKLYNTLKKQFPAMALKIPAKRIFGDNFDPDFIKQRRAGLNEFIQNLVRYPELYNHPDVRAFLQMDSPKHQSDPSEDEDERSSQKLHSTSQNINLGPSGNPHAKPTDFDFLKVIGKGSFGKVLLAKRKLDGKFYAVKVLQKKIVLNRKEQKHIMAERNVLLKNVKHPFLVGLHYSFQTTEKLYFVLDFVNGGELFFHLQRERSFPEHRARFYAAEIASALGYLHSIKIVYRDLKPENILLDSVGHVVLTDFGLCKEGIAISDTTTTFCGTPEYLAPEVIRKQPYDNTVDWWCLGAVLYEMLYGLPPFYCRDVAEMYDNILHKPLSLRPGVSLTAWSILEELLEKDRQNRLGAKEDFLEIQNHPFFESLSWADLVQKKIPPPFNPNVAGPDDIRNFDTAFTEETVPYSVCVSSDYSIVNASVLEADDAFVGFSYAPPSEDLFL

various kinases [25] = target: various kinases (Homo sapiens, UniProt P49674); conditions: CSNK1E (CK1 epsilon)
Sequence of various kinases (Homo sapiens, UniProt P49674) (P49674 whole entry): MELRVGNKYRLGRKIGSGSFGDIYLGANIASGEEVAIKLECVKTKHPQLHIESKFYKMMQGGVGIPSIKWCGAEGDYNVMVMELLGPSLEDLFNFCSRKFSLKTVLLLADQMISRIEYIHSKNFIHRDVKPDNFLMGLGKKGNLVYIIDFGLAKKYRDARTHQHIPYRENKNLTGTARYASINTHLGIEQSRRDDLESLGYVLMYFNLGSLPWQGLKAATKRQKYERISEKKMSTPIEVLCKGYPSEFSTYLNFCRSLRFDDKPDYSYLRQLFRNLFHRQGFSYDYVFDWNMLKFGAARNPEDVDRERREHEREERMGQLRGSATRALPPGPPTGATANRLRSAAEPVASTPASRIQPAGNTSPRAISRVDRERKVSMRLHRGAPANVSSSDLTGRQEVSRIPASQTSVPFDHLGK

Sequence of various kinases (Homo sapiens, UniProt Q9H3Y6) (Q9H3Y6 whole entry): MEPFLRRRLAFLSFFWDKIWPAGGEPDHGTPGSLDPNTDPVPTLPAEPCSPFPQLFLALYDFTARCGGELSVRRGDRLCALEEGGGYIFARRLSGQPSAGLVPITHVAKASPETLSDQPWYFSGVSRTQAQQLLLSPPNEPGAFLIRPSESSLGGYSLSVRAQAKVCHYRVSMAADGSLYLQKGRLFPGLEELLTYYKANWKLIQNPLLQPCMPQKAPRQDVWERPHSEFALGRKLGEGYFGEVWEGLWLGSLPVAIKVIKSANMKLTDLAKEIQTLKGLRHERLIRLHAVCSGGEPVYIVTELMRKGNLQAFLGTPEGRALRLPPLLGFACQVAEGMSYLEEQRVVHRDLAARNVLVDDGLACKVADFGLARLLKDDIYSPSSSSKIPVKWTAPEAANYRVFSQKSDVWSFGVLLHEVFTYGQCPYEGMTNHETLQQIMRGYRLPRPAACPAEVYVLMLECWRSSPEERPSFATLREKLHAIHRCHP
Sequence of various kinases (Homo sapiens, UniProt Q13464) (Q13464 whole entry): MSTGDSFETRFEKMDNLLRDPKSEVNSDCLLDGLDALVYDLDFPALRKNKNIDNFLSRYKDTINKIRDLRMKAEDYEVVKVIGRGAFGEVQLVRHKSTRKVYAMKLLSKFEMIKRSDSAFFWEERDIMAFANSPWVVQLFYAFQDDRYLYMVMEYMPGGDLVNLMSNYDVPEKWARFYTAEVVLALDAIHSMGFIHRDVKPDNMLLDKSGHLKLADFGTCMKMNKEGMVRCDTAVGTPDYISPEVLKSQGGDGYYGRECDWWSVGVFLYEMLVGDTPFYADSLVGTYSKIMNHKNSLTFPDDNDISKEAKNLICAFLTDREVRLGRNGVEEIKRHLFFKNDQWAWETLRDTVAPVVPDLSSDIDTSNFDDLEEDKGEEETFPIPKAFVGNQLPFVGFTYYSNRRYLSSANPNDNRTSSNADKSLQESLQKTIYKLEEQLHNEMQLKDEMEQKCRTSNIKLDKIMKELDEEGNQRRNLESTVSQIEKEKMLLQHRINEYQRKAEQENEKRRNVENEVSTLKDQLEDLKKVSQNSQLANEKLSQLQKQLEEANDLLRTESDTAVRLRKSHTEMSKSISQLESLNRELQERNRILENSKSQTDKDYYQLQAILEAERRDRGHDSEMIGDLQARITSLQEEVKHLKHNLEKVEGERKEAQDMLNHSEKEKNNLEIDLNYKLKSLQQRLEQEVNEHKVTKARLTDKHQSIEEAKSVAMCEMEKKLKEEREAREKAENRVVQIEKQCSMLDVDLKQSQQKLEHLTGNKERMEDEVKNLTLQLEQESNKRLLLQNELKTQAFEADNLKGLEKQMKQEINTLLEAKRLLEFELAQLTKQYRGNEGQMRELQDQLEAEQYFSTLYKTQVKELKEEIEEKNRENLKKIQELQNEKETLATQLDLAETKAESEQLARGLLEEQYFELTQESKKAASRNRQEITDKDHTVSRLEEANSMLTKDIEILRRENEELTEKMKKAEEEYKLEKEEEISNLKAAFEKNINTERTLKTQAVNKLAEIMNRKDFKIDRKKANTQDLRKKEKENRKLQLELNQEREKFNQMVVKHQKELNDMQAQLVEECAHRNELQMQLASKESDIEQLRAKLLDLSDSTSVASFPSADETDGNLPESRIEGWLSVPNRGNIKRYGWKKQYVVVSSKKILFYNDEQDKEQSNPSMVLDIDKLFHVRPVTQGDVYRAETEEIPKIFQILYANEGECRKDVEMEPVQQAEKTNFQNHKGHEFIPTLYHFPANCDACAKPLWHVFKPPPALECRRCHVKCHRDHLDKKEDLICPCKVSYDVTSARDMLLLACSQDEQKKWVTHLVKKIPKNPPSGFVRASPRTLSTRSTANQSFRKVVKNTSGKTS
Sequence of various kinases (Homo sapiens, UniProt O75582) (O75582 whole entry): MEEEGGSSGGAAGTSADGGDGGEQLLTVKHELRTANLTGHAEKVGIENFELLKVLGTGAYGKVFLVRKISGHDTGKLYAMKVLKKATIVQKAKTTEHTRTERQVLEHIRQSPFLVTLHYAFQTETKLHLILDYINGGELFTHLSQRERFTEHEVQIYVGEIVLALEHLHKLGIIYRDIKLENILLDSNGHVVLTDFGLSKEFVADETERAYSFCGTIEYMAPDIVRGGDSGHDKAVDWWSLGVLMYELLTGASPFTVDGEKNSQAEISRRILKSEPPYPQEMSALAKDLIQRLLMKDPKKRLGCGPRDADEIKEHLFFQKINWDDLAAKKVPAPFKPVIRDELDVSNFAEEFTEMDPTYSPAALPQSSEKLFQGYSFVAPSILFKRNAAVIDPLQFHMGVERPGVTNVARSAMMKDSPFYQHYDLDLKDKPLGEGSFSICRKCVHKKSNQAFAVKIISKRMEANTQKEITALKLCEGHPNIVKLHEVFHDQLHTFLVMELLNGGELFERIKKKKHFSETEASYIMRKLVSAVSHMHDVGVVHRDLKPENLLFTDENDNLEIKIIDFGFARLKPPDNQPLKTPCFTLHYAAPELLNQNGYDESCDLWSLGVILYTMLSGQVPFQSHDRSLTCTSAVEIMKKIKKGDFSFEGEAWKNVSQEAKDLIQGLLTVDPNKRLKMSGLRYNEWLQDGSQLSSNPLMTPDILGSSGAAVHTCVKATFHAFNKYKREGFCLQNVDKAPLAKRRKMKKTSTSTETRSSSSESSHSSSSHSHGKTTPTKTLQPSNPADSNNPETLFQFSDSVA
Sequence of various kinases (Homo sapiens, UniProt Q00535) (Q00535 whole entry): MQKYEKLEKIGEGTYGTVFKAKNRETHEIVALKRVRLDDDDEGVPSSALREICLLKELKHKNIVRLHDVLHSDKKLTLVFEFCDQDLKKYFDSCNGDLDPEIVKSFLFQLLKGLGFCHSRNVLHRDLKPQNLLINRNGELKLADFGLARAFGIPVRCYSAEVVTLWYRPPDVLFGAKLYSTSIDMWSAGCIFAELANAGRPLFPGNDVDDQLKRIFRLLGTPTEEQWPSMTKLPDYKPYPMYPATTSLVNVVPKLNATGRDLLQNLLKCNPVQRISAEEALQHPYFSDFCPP
Sequence of various kinases (Homo sapiens, UniProt Q15418) (Q15418 whole entry): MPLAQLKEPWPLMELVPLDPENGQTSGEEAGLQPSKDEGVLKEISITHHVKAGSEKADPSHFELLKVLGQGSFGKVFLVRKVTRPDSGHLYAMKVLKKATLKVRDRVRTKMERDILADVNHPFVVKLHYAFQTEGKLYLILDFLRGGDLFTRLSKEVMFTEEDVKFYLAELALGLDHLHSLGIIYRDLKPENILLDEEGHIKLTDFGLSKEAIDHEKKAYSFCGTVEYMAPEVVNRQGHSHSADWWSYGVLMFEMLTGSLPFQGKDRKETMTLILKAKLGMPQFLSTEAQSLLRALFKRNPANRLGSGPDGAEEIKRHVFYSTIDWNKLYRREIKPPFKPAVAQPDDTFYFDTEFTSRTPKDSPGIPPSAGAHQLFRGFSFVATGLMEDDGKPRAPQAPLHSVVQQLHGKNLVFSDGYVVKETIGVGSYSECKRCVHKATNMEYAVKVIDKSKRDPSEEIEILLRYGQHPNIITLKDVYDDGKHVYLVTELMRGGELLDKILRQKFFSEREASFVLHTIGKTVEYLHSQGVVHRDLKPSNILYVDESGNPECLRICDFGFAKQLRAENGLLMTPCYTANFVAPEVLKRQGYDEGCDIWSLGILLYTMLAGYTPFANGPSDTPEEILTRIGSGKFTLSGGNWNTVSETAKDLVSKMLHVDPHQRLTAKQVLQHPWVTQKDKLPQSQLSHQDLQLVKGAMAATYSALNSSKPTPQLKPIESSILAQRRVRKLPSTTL
Sequence of various kinases (Homo sapiens, UniProt O14920) (O14920 whole entry): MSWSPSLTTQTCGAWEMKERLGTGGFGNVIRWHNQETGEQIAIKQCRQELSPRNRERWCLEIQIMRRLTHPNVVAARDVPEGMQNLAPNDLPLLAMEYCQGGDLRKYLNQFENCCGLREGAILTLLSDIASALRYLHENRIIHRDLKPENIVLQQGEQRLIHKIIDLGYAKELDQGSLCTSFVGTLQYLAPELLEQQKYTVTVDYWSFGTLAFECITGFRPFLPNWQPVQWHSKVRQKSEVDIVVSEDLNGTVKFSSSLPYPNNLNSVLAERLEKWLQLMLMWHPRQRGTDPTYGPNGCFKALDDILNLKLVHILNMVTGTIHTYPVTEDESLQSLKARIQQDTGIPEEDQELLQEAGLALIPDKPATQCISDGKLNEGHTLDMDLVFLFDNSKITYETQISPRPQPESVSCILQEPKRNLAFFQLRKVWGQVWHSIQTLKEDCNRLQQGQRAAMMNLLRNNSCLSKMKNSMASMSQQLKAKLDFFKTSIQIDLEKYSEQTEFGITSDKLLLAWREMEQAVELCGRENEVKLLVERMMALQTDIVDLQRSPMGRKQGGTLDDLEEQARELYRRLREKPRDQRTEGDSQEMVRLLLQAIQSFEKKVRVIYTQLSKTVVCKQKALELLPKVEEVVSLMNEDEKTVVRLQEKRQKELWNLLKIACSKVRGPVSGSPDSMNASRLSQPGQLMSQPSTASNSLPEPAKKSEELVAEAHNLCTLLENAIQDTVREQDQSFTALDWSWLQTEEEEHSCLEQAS

For COc1ccc2c(c1)[C@]1(C[C@H]1c1ccc3c(/C=C/c4ccc(CN5C[C@@H](C)O[C@@H](C)C5)cc4)n[nH]c3c1)C(=O)N2 [CFI-400945], the “% Inhibition” value (various kinases [1]) was -1% and -5%, the “% Inhibition” value (various kinases [2]) was -2% and the “% Inhibition” value (various kinases [3]) was 23%. The “% Inhibition Average” value (various kinases [4]) was 7%, the “% Inhibition Duplicate #1” value (various kinases [4]) was 7% and the “% Inhibition Duplicate #2” value (various kinases [4]) was 6%. The “% Inhibition” value (various kinases [5]) was 39% and 36%, the “% Inhibition” value (various kinases [6]) was 12% and 18% and the “% Inhibition” value (various kinases [7]) was 74%. The IC50 (various kinases [7]) was 59.7 nM, the “% Inhibition” value (various kinases [8]) was -3% and -1% and the “% Inhibition” value (various kinases [9]) was -3% and -2%. For the same compound, the “% Inhibition” value (various kinases [10]) was 3%, the “% Inhibition” value (various kinases [11]) was 14% and 15% and the “% Inhibition” value (various kinases [12]) was 3% and 1%. The “% Inhibition Average” value (various kinases [13]) was 11%, the “% Inhibition Duplicate #1” value (various kinases [13]) was 10% and the “% Inhibition Duplicate #2” value (various kinases [13]) was 12%. The “% Inhibition Average” value (various kinases [14]) was 3%, the “% Inhibition Duplicate #1” value (various kinases [14]) was 2% and the “% Inhibition Duplicate #2” value (various kinases [14]) was 4%. For the same compound, the “% Inhibition” value (various kinases [15]; CDK5/p25) was 6% and 8%, the “% Inhibition” value (various kinases [15]; CDK5/p35) was 2% and 3% and the “% Inhibition” value (various kinases [16]) was 8% and 9%. The “% Inhibition Average” value (various kinases [17]) was 0%, the “% Inhibition Duplicate #1” value (various kinases [17]) was 0% and the “% Inhibition Duplicate #2” value (various kinases [17]) was 0%. For the same compound, the “% Inhibition” value (various kinases [18]) was 59% and 55%, the “% Inhibition” value (various kinases [19]) was 5% and 4% and the “% Inhibition Average” value (various kinases [20]) was 11%. The “% Inhibition Duplicate #1” value (various kinases [20]) was 11%, the “% Inhibition Duplicate #2” value (various kinases [20]) was 11% and the “% Inhibition” value (various kinases [21]) was 17% and 8%. For the same compound, the “% Inhibition” value (various kinases [22]) was 2% and 3%, the “% Inhibition” value (various kinases [23]) was 12% and 18% and the “% Inhibition Average” value (various kinases [24]) was 3%. For the same compound, the “% Inhibition Duplicate #1” value (various kinases [24]) was 4%, the “% Inhibition Duplicate #2” value (various kinases [24]) was 2% and the “% Inhibition” value (various kinases [25]) was 7% and 6%.
